Assay results as given in ChEMBL document CHEMBL1146107, “Investigation of mechanism-based thrombin inhibitors: Implications of a highly conserved water molecule for the binding of coumarins within the S pocket” (Bioorg Med Chem Lett, 2006).

Target: Prothrombin (Homo sapiens, UniProt P00734)
Test: Inhibition of thrombin

| Structure (SMILES) | IC50 |
| --- | --- |
| N=C(N)Nc1cccc(OC(=O)c2cc3cc(CCl)ccc3oc2=O)c1 | > 300 µM |
| N=C(N)NCCOC(=O)c1cc2cc(CCl)ccc2oc1=O | 107 µM |
| NCCOC(=O)c1cc2cc(CCl)ccc2oc1=O | 284 µM |
| NCCCOC(=O)c1cc2cc(CCl)ccc2oc1=O | > 300 µM |
| NC(N)=NCCCOC(=O)c1cc2cc(CCl)ccc2oc1=O | > 300 µM |
| N=C(N)Nc1ccc(OC(=O)c2cc3cc(CCl)ccc3oc2=O)cc1 | 151 µM |
| Nc1cccc(OC(=O)c2cc3cc(CCl)ccc3oc2=O)c1 | 1.98 µM |
| Nc1ccc(OC(=O)c2cc3cc(CCl)ccc3oc2=O)cc1 | 48 µM |
| O=C(Oc1cccc(Cl)n1)c1cc2cc(CCl)ccc2oc1=O | 0.87 µM |
| O=C(Oc1cncc(Cl)c1)c1cc2cc(CCl)ccc2oc1=O | > 300 µM |
| NC1CCC(OC(=O)c2cc3cc(CCl)ccc3oc2=O)CC1 (stereo not drawn) | > 300 µM |
| O=C(OC1CCNCC1)c1cc2cc(CCl)ccc2oc1=O | > 300 µM |
| Cc1cccc(OC(=O)c2cc3cc(CCl)ccc3oc2=O)n1 | 1.39 µM |
